Results from article PMC8703317, “2-(Piperidin-4-yl)acetamides as Potent Inhibitors of Soluble Epoxide Hydrolase with Anti-Inflammatory Activity” (Pharmaceuticals, 2021).

Legend:
[1] = design: method as in PMID 33945278; conditions: 60 min incubation with human microsomes, NADPH, 37 °C; cited from earlier work
[2] = design: method as in PMID 33945278; conditions: cited from earlier work; for Microsomal Stability Mouse % Remaining at 1 h: 60 min incubation with mouse microsomes, NADPH, 37 °C
[3] = target: T1, human sEH (Homo sapiens, UniProt P34913); experiment: fluorescent-based sEH inhibition assay, recombinant human sEH; type: biochemical; conditions: baculovirus expressed recombinant human sEH, average of three replicates
T1 construct: made in house; host or cells: baculovirus expression system (insect cells implied)
T1 sequence (P34913 1-555): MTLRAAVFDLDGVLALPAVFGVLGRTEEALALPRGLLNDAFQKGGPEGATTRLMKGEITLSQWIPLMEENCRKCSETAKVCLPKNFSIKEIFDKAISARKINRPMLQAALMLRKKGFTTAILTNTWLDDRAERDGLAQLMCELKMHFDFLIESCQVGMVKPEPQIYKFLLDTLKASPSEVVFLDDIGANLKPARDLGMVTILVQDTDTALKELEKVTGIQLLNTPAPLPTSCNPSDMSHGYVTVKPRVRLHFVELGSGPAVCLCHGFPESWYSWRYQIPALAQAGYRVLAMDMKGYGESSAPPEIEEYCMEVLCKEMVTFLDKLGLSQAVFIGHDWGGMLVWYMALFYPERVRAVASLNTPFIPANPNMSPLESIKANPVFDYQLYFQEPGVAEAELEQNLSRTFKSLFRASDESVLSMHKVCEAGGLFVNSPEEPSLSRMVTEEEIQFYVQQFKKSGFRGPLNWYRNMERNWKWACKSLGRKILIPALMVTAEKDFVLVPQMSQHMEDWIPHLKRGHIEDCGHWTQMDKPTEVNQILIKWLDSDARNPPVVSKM
Description: (§1) The potency of all the new compounds as inhibitors of the human and murine sEH was tested using a previously reported sensitive fluorescent-based assay using baculovirus expressed recombinant human and mouse sEH [28].

[4] = target: T2, murine sEH (Mus musculus, UniProt P34914); experiment: fluorescent-based sEH inhibition assay, recombinant mouse sEH; type: biochemical; conditions: baculovirus expressed recombinant mouse sEH, average of three replicates
T2 construct: made in house; host or cells: baculovirus expression system (insect cells implied)
T2 sequence (P34914 1-554): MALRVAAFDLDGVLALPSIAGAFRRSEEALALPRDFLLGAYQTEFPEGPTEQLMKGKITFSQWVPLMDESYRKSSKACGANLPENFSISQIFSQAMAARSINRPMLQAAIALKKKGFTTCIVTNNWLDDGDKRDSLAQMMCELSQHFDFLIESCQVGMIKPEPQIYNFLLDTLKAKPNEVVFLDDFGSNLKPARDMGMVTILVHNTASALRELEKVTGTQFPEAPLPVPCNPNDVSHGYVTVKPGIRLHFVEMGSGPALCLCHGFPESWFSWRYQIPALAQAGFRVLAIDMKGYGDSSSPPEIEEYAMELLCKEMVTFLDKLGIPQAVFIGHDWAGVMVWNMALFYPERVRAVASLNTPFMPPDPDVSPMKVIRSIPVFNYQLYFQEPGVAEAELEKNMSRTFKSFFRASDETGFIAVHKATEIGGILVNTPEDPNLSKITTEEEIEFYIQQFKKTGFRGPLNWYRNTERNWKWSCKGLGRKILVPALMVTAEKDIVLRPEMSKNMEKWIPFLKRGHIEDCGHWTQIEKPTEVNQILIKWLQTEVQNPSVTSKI
Description: as §1

[5] = microsomal stability, human microsomes; type: in vitro ADME; conditions: pooled human microsomes, pH 7.4; 60 min incubation with human microsomes, NADPH, 37 °C
Description: (§2) The human and murine pooled microsomes employed were purchased from Tebu-Xenotech (Barcelona, Spain). The compound was incubated at 37 °C with the microsomes in a 50 mM phosphate buffer (pH = 7.4) containing 3 mM MgCl2, 1 mM NADP, 10 mM glucose-6-phosphate and 1 U/mL glucose-6-phosphate-dehydrogenase. Samples (75 µL) were taken from each well at 0, 10, 20, 40 and 60 min and transferred to a plate containing 4 °C 75 µL acetonitrile and 30 µL of 0.5% formic acid in water were added for improving the chromatographic conditions. The plate was centrifuged (46000 g, 30 min) and supernatants were taken and analyzed in a UPLC-MS/MS (Xevo-TQD, Waters) by employing a BEH C18 column and an isocratic gradient of 0.1% formic acid in water: 0.1% formic acid acetonitrile (60:40). The metabolic stability of the compounds was calculated from the logarithm of the remaining compounds at each of the time points studied.

[6] = microsomal stability, mouse microsomes; type: in vitro ADME; conditions: pooled murine microsomes, pH 7.4; 60 min incubation with mouse microsomes, NADPH, 37 °C
Description: as §2

[7] = test system: microglial BV2 cells activated with LPS; experiment: nitric oxide generation (nitrite, Griess) in LPS-activated BV2 microglial cells; type: cell-based; conditions: compound at 100 µM, LPS, 24 h, percentage of LPS value
Description: Inflammatory changes were determined by the measure of nitric oxide generation, as the endpoint of iNOS activation, in microglial BV2 cells. BV2 cells (HyperCLDB, Banca Biologica e Cell Factory, ICLC ATL 03001) were grown in RPMI 1640 medium, supplemented with L-glutamine 2 mM, gentamycin 50 µM and 10% FBS. For experiments, cells were seeded in 96-well plates at 2 × 10^5 cells/mL, 100 µL/well. […] After 1 h of incubation, the cells were treated with the pro-inflammatory chemical LPS (0.1 μg/mL or 1 μg/mL; strain E. coli […], Sigma-Aldrich, L-2654, batch #120M4028) and further incubated for 24 h. TPPU at 100 µM was also assayed as a reference anti-inflammatory compound. DMSO 0.1% was used as vehicle. Cells were maintained at 37 °C in a humidified incubator with 5% CO2 throughout the procedures. Nitric oxide released to the culture medium was measured by the colorimetric Griess reaction that detects nitrite (NO2^–), a stable reaction product of nitric oxide and molecular oxygen. Briefly, 50 µL of conditioned medium were incubated with 50 µL of Griess reagent for 10 min at room temperature. Optical density was measured at 540 nm. Nitrite concentration was determined from a sodium nitrite standard curve. Results were normalized by cell protein content in the well and expressed as a percentage of the average maximal values given by the pro-inflammatory agent (LPS 1 µg/mL). Each treatment was performed in 3–5 wells and the whole experiment was repeated 3–4 times in cultures of different cell passage. Data were analyzed by ANOVA followed by Tukey’s multiple comparisons test.

Structure (SMILES) | Microsomal Stability Human % Remaining at 1 h [1] | Microsomal Stability Mouse % Remaining at 1 h [2] | IC50 [3] | IC50 [4] | remaining at 1 h [5] | remaining at 1 h [6] | melting point | nitric oxide release induced by LPS, reduced to [7] | microsomal stability (% remaining at 1 h) mouse ([2]; Figure 2 legend)
O=C(NC12CC3CC(Cl)(CC(C1)c1ccccc13)C2)N[C@H]1CC[C@H](Oc2ccc(C(=O)O)cc2)CC1 [11c] | 89% | 60% |  |  |  |  |  |  | 
CC(C)S(=O)(=O)N1CCC(CC(=O)NC23CC4CC(F)(CC(C2)c2ccccc24)C3)CC1 [6c, N-(9-Fluoro-5,6,8,9,10,11-hexahydro-7H-5,9:7,11-dimethanobenzo[9]annulen-7-yl)-2-(1-(isopropylsulfonyl)piperidin-4-yl)acetamide] |  |  | 1.6 nM | 0.4 nM | 5.5% | 5.1% | 192 to 193 °C |  | 
CC(=O)c1ccc(N2CCC(CC(=O)NC34CC5CC(F)(CC(C3)c3ccccc35)C4)CC2)cc1 [10a, 2-(1-(4-Acetylphenyl)piperidin-4-yl)-N-(9-fluoro-5,6,8,9,10,11-hexahydro-7H-5,9:7,11-dimethanobenzo[9]annulen-7-yl)acetamide] |  |  | 0.6 nM | 0.7 nM | 0.1% | 0.1% | 229 to 230 °C |  | 
[2H]C12CC3CC(NC(=O)CC4CCN(S(=O)(=O)C(C)C)CC4)(CC(C1)c1ccccc13)C2 [6f, N-(5,6,8,9,10,11-Hexahydro-7H-5,9:7,11-dimethanobenzo[9]annulen-7-yl-9-d)-2-(1-(isopropylsulfonyl)piperidin-4-yl)acetamide] |  |  | 2.4 nM | 0.4 nM | 1.3% | 0.5% | 138 to 139 °C |  | 
O=C(NC12CC3CC(F)(CC(C1)c1ccccc13)C2)N[C@H]1CC[C@H](Oc2ccc(C(=O)O)cc2)CC1 [11b] | 77% | 36% |  |  |  |  |  |  | 
CCC(=O)N1CCC(NC(=O)Nc2ccc(OC(F)(F)F)cc2)CC1 [TPPU, reference compound] |  |  |  |  |  |  |  | approximately 50% | 
O=C(CC1CCN(Cc2ccccc2)CC1)NC12CC3CC(F)(CC(C1)c1ccccc13)C2 [6h, 2-(1-Benzylpiperidin-4-yl)-N-(9-fluoro-5,6,8,9,10,11-hexahydro-7H-5,9:7,11-dimethanobenzo[9]annulen-7-yl)acetamide] |  |  | 21.4 nM | 12.9 nM | 0.3% | 0.1% | 164 to 165 °C |  | 
CC12CC3CC(NC(=O)CC4CCN(Cc5ccccc5)CC4)(CC(C1)c1ccccc13)C2 [6g, 2-(1-Benzylpiperidin-4-yl)-N-(9-methyl-5,6,8,9,10,11-hexahydro-7H-5,9:7,11-dimethanobenzo[9]annulen-7-yl)acetamide] |  |  | 37.5 nM | 3.3 nM | 0.1% | 0.1% |  |  | 
O=C(CC1CCN(c2ccc(C(=O)O)cc2)CC1)NC12CC3CC(Cl)(CC(C1)c1ccccc13)C2 [10e] |  |  | 1.7 nM | 0.7 nM | 52% | 6% |  |  | 
CC12CC3CC(NC(=O)N[C@H]4CC[C@H](Oc5ccc(C(=O)O)cc5)CC4)(CC(C1)c1ccccc13)C2 [11a] | 70% | 10% |  |  |  |  |  |  | 
CC(=O)N1CCC(CC(=O)NC23CC4CC(C)(CC(C2)c2ccccc24)C3)CC1 [6a, 2-(1-Acetylpiperidin-4-yl)-N-(9-methyl-5,6,8,9,10,11-hexahydro-7H-5,9:7,11-dimethanobenzo[9]annulen-7-yl)acetamide] |  |  | 34.5 nM | 0.4 nM | 0.3% | 0% |  |  | 
N#Cc1ccc(N2CCC(CC(=O)NC34CC5CC(F)(CC(C3)c3ccccc35)C4)CC2)cc1 [10b, 2-(1-(4-Cyanophenyl)piperidin-4-yl)-N-(9-fluoro-5,6,8,9,10,11-hexahydro-7H-5,9:7,11-dimethanobenzo[9]annulen-7-yl)acetamide] |  |  | 3.4 nM | 0.4 nM | 0% | 0.1% | 180 to 181 °C |  | 
CC(C)S(=O)(=O)N1CCC(CC(=O)NC23CC4CC(C)(CC(C2)c2ccccc24)C3)CC1 [6b, 2-[1-(Isopropylsulfonyl)piperidin-4-yl]-N-(9-methyl-5,6,8,9,10,11-hexahydro-7H-5,9:7,11-dimethanobenzo[9]annulen-7-yl)acetamide] |  |  | 30.2 nM | 0.4 nM | 0% | 0% |  |  | 
CC(C)S(=O)(=O)N1CCC(CC(=O)NC23CC4CC(Cl)(CC(C2)c2ccccc24)C3)CC1 [6d, N-(9-Chloro-5,6,8,9,10,11-hexahydro-7H-5,9:7,11-dimethanobenzo[9]annulen-7-yl)-2-(1-(isopropylsulfonyl)piperidin-4-yl)acetamide] |  |  | 1 nM | 0.4 nM | 7% | 1.4% | 163 to 164 °C |  | 
O=C(CC1CCN(c2ccc(C(=O)O)cc2C2CC2)CC1)NC12CC3CC(F)(CC(C1)c1ccccc13)C2 [10d, 3-Cyclopropyl-4-(4-(2-((9-fluoro-5,6,8,9,10,11-hexahydro-7H-5,9:7,11-dimethanobenzo[9]annulen-7-yl)amino)-2-oxoethyl)piperidin-1-yl)benzoic Acid] |  |  | 0.4 nM | 0.2 nM | 11% | 2% | 190 to 191 °C |  | 
CC(C)S(=O)(=O)N1CCC(CC(=O)NC23CC4CC(C2)c2ccccc2C(C4)C3)CC1 [6e, N-(5,6,8,9,10,11-Hexahydro-7H-5,9:7,11-dimethanobenzo[9]annulen-7-yl)-2-(1-(isopropylsulfonyl)piperidin-4-yl)acetamide] |  |  | 2.8 nM | 0.5 nM | 0.6% | 0.2% | 136 to 137 °C |  | 
CC(=O)N1CCC(NC(=O)NC23CC4CC(C)(CC(C2)c2ccccc24)C3)CC1 [compound 1, reference compound] |  |  |  |  | 1% | 1% |  |  | 0.5%
